The values that follow come from the Kinase Knowledgebase extract (Sharma et al. 2016).

The target of the first assay is CDK2 (UniProt P24941). The assay can be described thus: Enzyme Assay.
Conditions: not given
Take `Nc1nc(Nc2ccc(S(N)(=O)=O)cc2)sc1-c1nc(C(=O)Nc2ccccc2)cs1`: the inhibition constant (Ki) (commonly a measure of affinity in units of concentration, obtained from inhibition or displacement) was 58 nM. That is a double-digit nanomolar value.
Still for that read-out and setting: to `COc1cc(O)c(Br)c(-c2csc(-c3sc(Nc4cc(OC)c(OC)c(OC)c4)nc3N)n2)c1` belongs 710 nM.
Still for that read-out and setting: to `Nc1nc(Nc2ccc(S(N)(=O)=O)cc2)sc1-c1nc(-c2cc3ccccc3s2)cs1` belongs 3200 nM.

The assay is the same for the next values; noted with them: concentration not given here.
Regarding `COc1cc(Nc2nc(N)c(-c3nc(-c4c(-c5ccccc5)noc4C)cs3)s2)cc(OC)c1OC`, the inhibition (usually the relative decrease from the control value, in per cent) was 13.6%.
On the same count and under the same terms, in the case of `Cc1c(F)cc(-c2csc(-c3sc(Nc4ccc(S(N)(=O)=O)cc4)nc3N)n2)cc1Cl` it was 25%.
Same read-out and setting: to `COc1cc(Nc2nc(N)c(-c3nc(-c4cccc(Br)c4)cs3)s2)cc(OC)c1OC` belongs 15.6%; to `COc1cc(Nc2nc(N)c(-c3nc(-c4ccccc4OC(C)=O)cs3)s2)cc(OC)c1OC`, 1.6%.
On the same count and under the same terms, to `COc1cc(Nc2nc(N)c(-c3nc(-c4ccc(Cl)c(C)c4)cs3)s2)cc(OC)c1OC` belongs -4.4%; to `CC(C)c1ccc(Nc2nc(N)c(-c3nc(-c4ccc(Cl)cc4Cl)cs3)s2)cc1`, 15.1%; to `COc1cc(Nc2nc(N)c(-c3nc(-c4cc(C(C)(C)C)c(O)c(C(C)(C)C)c4)cs3)s2)cc(OC)c1OC`, 5.3%.
Take `COc1cc(Nc2nc(N)c(-c3nc(-c4ccc(O)cc4)cs3)s2)cc(OC)c1OC`: the inhibition amounted to 3%.
Still for that read-out and setting: to `Cc1onc(-c2ccccc2)c1-c1csc(-c2sc(Nc3ccc(S(N)(=O)=O)cc3)nc2N)n1` belongs -4.5%; to `COc1cc(Nc2nc(N)c(-c3nc(-c4cc(C)c(O)c(C)c4)cs3)s2)cc(OC)c1OC`, 28.4%; to `COc1cc(Nc2nc(N)c(-c3nc(-c4ccccc4[N+](=O)[O-])cs3)s2)cc(OC)c1OC`, 1.9%.
Same read-out and setting: in the case of `COc1ccc(-c2csc(-c3sc(Nc4ccc(C(C)C)cc4)nc3N)n2)c(OC)c1` it was -22.6%.
The same measure, in the same setting: to `COc1cc(Nc2nc(N)c(-c3nc(-c4ccc5oc6ccccc6c5c4)cs3)s2)cc(OC)c1OC` belongs 19%; to `COc1cc(Nc2nc(N)c(-c3nc(-c4ccc5c(c4)OCCO5)cs3)s2)cc(OC)c1OC`, 5.4%.
`COc1cc(Nc2nc(N)c(-c3nc(-c4ccc(Cl)cc4Cl)cs3)s2)cc(OC)c1OC`: the inhibition stood at 3.8%.
The same measure, in the same setting: in the case of `COc1cc(Nc2nc(N)c(-c3nc(-c4ccc[nH]4)cs3)s2)cc(OC)c1OC` it was 14.3%; in that of `COc1cc(Nc2nc(N)c(-c3nc(-c4cc(C(=O)C(Cl)(Cl)Cl)n(C)c4)cs3)s2)cc(OC)c1OC`, 3.9%.
On the same count and under the same terms, to `CN(C)c1ccc(Nc2nc(N)c(-c3nc(-c4ccccc4[N+](=O)[O-])cs3)s2)cc1` belongs 8.3%.
Still for that read-out and setting: to `COc1cc(Nc2nc(N)c(-c3nc(-c4ccc(Cl)c([N+](=O)[O-])c4)cs3)s2)cc(OC)c1OC` belongs -4.8%; to `COc1cc(Nc2nc(N)c(-c3nc(-c4ccc5ccccc5c4)cs3)s2)cc(OC)c1OC`, 11.6%; to `COc1cc(Nc2nc(N)c(-c3nc(-c4ccc5c(c4)CCC(=O)N5)cs3)s2)cc(OC)c1OC`, -7.8%.
`COc1cc(Nc2nc(N)c(-c3nc(-c4ccc(CC(=O)O)s4)cs3)s2)cc(OC)c1OC`: the inhibition is 26.7%.
The same measure, in the same setting: in the case of `COc1cc(Nc2nc(N)c(-c3nc(-c4ccc(O)c(O)c4)cs3)s2)cc(OC)c1OC` it was -10.3%; in that of `CCCCCc1ccc(-c2csc(-c3sc(Nc4cc(OC)c(OC)c(OC)c4)nc3N)n2)cc1`, 11.3%.
The same measure, in the same setting: in the case of `COc1cc(Nc2nc(N)c(-c3nc(-c4c(C)c(C)c(C)c(C)c4C)cs3)s2)cc(OC)c1OC` it was 19.8%.
Still for that read-out and setting: to `COc1ccccc1-c1csc(-c2sc(Nc3ccc(N(C)C)cc3)nc2N)n1` belongs -6.4%; to `COc1cccc(-c2csc(-c3sc(Nc4cc(OC)c(OC)c(OC)c4)nc3N)n2)c1`, -0.4%; to `COc1cc(Nc2nc(N)c(-c3nc(-c4cc(C)sc4C)cs3)s2)cc(OC)c1OC`, 7.3%.
With `Cc1c(-c2csc(-c3sc(Nc4ccc(S(N)(=O)=O)cc4)nc3N)n2)sc2ccc(Cl)cc12`, the inhibition was determined as 61.5%.
With `COc1cc(Nc2nc(N)c(-c3nc(-c4cccc([N+](=O)[O-])c4)cs3)s2)cc(OC)c1OC`, the inhibition amounted to 6.6%.
On the same count and under the same terms, in the case of `COc1cc(Nc2nc(N)c(-c3nc(-c4ccc([N+](=O)[O-])cc4)cs3)s2)cc(OC)c1OC` it was -14.4%.
Still for that read-out and setting: to `COc1cc(Nc2nc(N)c(-c3nc(-c4ccccc4OC(=O)c4ccccc4)cs3)s2)cc(OC)c1OC` belongs 4.6%; to `COc1cc(Nc2nc(N)c(-c3nc(-c4c(Cl)cc(C(F)(F)F)cc4Cl)cs3)s2)cc(OC)c1OC`, -6%; to `COc1cc(Nc2nc(N)c(-c3nc(-c4ccc(C)cc4)cs3)s2)cc(OC)c1OC`, -2.1%.
In the case of `CCCCCc1ccc(-c2csc(-c3sc(Nc4ccc(N(C)C)cc4)nc3N)n2)cc1`, the inhibition was -6%.
Consider `COc1cc(Nc2nc(N)c(-c3nc(-c4ccc(OC(=O)c5ccccc5)cc4)cs3)s2)cc(OC)c1OC`, for which the inhibition worked out at 14.6%.
As for `Cc1c(-c2csc(-c3sc(Nc4ccc(N(C)C)cc4)nc3N)n2)sc2ccc(Cl)cc12`, the inhibition is 27.2%.
As for `COc1cc(Nc2nc(N)c(-c3nc(-c4ccc(C)cc4C)cs3)s2)cc(OC)c1OC`, the inhibition was 1.2%.
The same measure, in the same setting: in the case of `CN(C)c1ccc(Nc2nc(N)c(-c3nc(-c4cccc(OC(=O)c5ccccc5)c4)cs3)s2)cc1` it was 27.1%.
On the same count and under the same terms, to `COc1cc(Nc2nc(N)c(-c3nc(-c4ccc(Cl)c(Cl)c4)cs3)s2)cc(OC)c1OC` belongs 7.3%; to `Nc1nc(Nc2ccc(S(N)(=O)=O)cc2)sc1-c1nc(-c2ccc(-c3ccccc3)cc2)cs1`, 0%; to `CC(C)c1ccc(Nc2nc(N)c(-c3nc(-c4ccc5oc6ccccc6c5c4)cs3)s2)cc1`, -4.3%.
Regarding `COc1cc(Nc2nc(N)c(-c3nc(-c4cccc(OC(=O)c5ccccc5)c4)cs3)s2)cc(OC)c1OC`, the inhibition is -12.3%.
The same measure, in the same setting: in the case of `CCCCCc1ccc(-c2csc(-c3sc(Nc4ccc(S(N)(=O)=O)cc4)nc3N)n2)cc1` it was -9.9%; in that of `CCOC(=O)c1cc(-c2csc(-c3sc(Nc4cc(OC)c(OC)c(OC)c4)nc3N)n2)on1`, 23.2%.
The same measure, in the same setting: in the case of `COc1ccc2nc(-c3ccccc3)c(-c3csc(-c4sc(Nc5cc(OC)c(OC)c(OC)c5)nc4N)n3)cc2c1` it was -2.7%; in that of `COc1cc(Nc2nc(N)c(-c3nc(-c4ccc(C#N)cc4)cs3)s2)cc(OC)c1OC`, 15.6%; in that of `COc1cc(Nc2nc(N)c(-c3nc(-c4ccc(F)cc4)cs3)s2)cc(OC)c1OC`, 35%.
On the same count and under the same terms, to `COc1cc(Nc2nc(N)c(C3=NC(c4cc(F)c(C)c(Cl)c4)CS3)s2)cc(OC)c1OC` (configuration not stated) belongs -7.5%.
Consider `Nc1nc(Nc2ccc(S(N)(=O)=O)cc2)sc1-c1nc(-c2ccc(F)cc2)cs1`, for which the inhibition was 27%.
On the same count and under the same terms, in the case of `COc1cc(Nc2nc(N)c(-c3nc(-c4ccc(F)c(F)c4)cs3)s2)cc(OC)c1OC` it was -5%.
The same measure, in the same setting: to `COc1ccc(-c2csc(-c3sc(Nc4cc(OC)c(OC)c(OC)c4)nc3N)n2)c(OC)c1` belongs 4.9%; to `COc1ccc(OC)c(-c2csc(-c3sc(Nc4cc(OC)c(OC)c(OC)c4)nc3N)n2)c1`, 12.2%; to `COc1cc(Nc2nc(N)c(-c3nc(-c4csc5ccccc45)cs3)s2)cc(OC)c1OC`, 9.1%.
